The record followed here is patent US8623855B2, “Azetidinone compounds and medical use thereof” (Zhejiang Hisun Pharmaceutical Co., Ltd., priority 2009, dated 2014).

Read-outs that look alike come from different tables or passages of the source.

This assay relates to hypercholesterolemia golden hamster model. The assay can be described thus: In vivo pharmacodynamic screening in hypercholesterolemia model of golden hamster (plasma TC and LDL-C). The following applies: for inhibition in vivo at 1 mg/kg / inhibition in vivo at 10 mg/kg / inhibition in vivo at 0.4 mg/kg / inhibition in vivo at 2 mg/kg / inhibition in vivo at 5 mg/kg: Mesocricetus auratus, po, 168 h; for LDL after administration / TC after administration / LDL-C after administration: 1 week, plasma; for reduction of plasma TC and LDL-C levels (in words): significant statistical difference; for effect of lowering cholesterol (screening result in words): in vivo pharmacodynamic screening test, Ezetimibe as positive control; for efficacy compared with the positive control (in words): positive control Ezetimibe. Here is the method: 1. Establishment of Hypercholesterolemia Model of Golden Hamster:
The animals were subjected to acclimation feeding for 1 week with free feeding and drinking under a lighting condition of 10 h/14 h. On Day 8, the animals were raised with high fat feed (consisting of 0.5% cholesterol, 20% palm oil, 79.5% basal feed) for 1 week. Then, each animal was anesthetized by ether. After weighing, 0.5 ml blood was obtained from orbital vein, anticoagulated with heparin and centrifuged at 5000 rpm for 10 min. The plasma was collected and the levels of plasma TC (total cholesterol) and LDL-C (low density lipoprotein cholesterol) were determined by automatic biochemical analyzer. Animals with plasma TC of 9-15 mmol/L were selected as model animals (refer to the following reference for the method of animal modeling: Burrier, R. E., Smith, A. A., Mcgregor, D. G, Hoos, L. M., Zilli, D. L., Davis, H. R. The effect of acyl CoA: cholesterol acyltransferase inhibition on the uptake, esterification and secretion of cholesterol by the hamster small intestine. J. Pharm. Exp. Ther., 1995, 272, 156-163).
The animals were grouped according to TC and LDL-C levels and weight with 6 animals per group. Ezetimibe was used as positive control. The animals were intragastrically administered at a volume of 5 ml/kg for 1 week. Each animal was anesthetized by ether. After weighing, 0.5 ml blood was taken from orbital vein, anticoagulated with heparin, and centrifuged at 5000 rpm for 10 min. The plasma was collected and plasma TC (total cholesterol) and LDL-C (low density lipoprotein cholesterol) levels were determined by automatic biochemical analyzer to evaluate the efficacy of the compounds.

Where [1] appears, read: Table 6, read-out: Reducing LDL-C %.
Where [2] appears, read: Table 6, read-out: Reducing TC %.
Where [3] appears, read: golden hamster hypercholesterolemic model.
Where [4] appears, read: Table 2, read-out: Reducing LDL-C %.
[5] abbreviates: Table 2, read-out: Reducing TC %.
The mark [6] stands for this setting: Table 1, 0.4 mg/kg intragastric.
Where [7] appears, read: Table 10, read-out: Reducing LDL-C %.
The mark [8] stands for this setting: Table 10, read-out: Reducing TC %.
Where [9] appears, read: Table 12, read-out: Reducing LDL-C %.
Where [10] appears, read: Table 12, read-out: Reducing TC %.
The mark [11] stands for this setting: Table 11, 10 mg/kg intragastric.
[12] abbreviates: Table 11, baseline of group dosed 10 mg/kg.
The mark [13] stands for this setting: Table 11, baseline of group dosed 3 mg/kg.

For the molecule `O=C(OC/C(=C\C[C@H]1C(=O)N(c2ccc(F)cc2)[C@@H]1c1ccc(O)cc1)c1ccc(F)cc1)c1ccccc1` [I-13(Z)], the “effect of lowering cholesterol (screening result in words)” value (from here on “effect of lowering cholesterol”) is “have the effect of lowering cholesterol”. In addition, under setting [1], the inhibition in vivo at 1 mg/kg came to 58.1% and the inhibition in vivo at 10 mg/kg turned out to be 68.8%. For the same molecule, under setting [2], the inhibition in vivo at 1 mg/kg was 36.8% and the inhibition in vivo at 10 mg/kg was found to be 55.4%. Besides, under “Table 5, 1 mg/kg intragastric”, the LDL after administration was found to be 1.98 mmol/L and the TC after administration is on record as 6.92 mmol/L. For the setting “Table 5, 10 mg/kg intragastric”, this molecule had an LDL after administration of 1.27 mmol/L and a TC after administration of 4.81 mmol/L. Moreover, the “reduction of plasma TC and LDL-C levels (in words)” value (shortened to “reduction … (in words)”) under setting [3] was “can significantly reduce the plasma TC and LDL-C levels”.
For the molecule `O=C1[C@H](C/C=C(/CO)c2ccc(F)cc2)[C@@H](c2ccc(O)cc2)N1c1ccc(F)cc1` [I-1(E), (3R,4S)-1-(4-fluorophenyl)-3-[(E)-3-(4-fluorophenyl)-4-hydroxy-but-2-enyl]-4-(4-hydroxyphenyl)azetidin-2-one], the “effect of lowering cholesterol” value is “certain effect on cholesterol-lowering”. Under setting [4], the inhibition in vivo at 0.4 mg/kg is -16.4%, the inhibition in vivo at 2 mg/kg was 0% and the inhibition in vivo at 10 mg/kg was determined as 30.7%. Further, under setting [5], the inhibition in vivo at 0.4 mg/kg is -26.1%, the inhibition in vivo at 2 mg/kg is -20.9% and the inhibition in vivo at 10 mg/kg is 11.7%. Under setting [6], the LDL-C after administration came to 2.84 ± 0.59 mmol/L and the TC after administration stood at 12.42 ± 1.4 mmol/L. In addition, for the setting “Table 1, 2 mg/kg intragastric”, the LDL-C after administration stood at 2.21 ± 0.37 mmol/L and the TC after administration is listed as 11.19 ± 0.69 mmol/L. Under “Table 1, 10 mg/kg intragastric”, this molecule returned an LDL-C after administration of 1.74 ± 0.62 mmol/L and a TC after administration of 8.7 ± 0.93 mmol/L. The same molecule returned an LDL-C before administration (Table 1, baseline of group dosed 0.4 mg/kg) of 2.44 ± 0.46 mmol/L. For the setting “Table 1, baseline of group dosed 2 mg/kg”, this molecule gave an LDL-C before administration of 2.21 ± 0.47 mmol/L. Also, under “Table 1, baseline of group dosed 10 mg/kg”, the LDL-C before administration stood at 2.51 ± 0.91 mmol/L. Under setting [3], the “reduction of plasma TC and LDL-C relative to the amount reduced by Ezetimibe and I-1 (Z)” value is listed as “less than 50%”; the “reduction … (in words)” value was “can also lower plasma TC and LDL-C levels”.
As for `CC(=O)OC/C(=C\C[C@H]1C(=O)N(c2ccc(F)cc2)[C@@H]1c1ccc(OC(C)=O)cc1)c1ccc(F)cc1` [I-11(Z), (3R,4S)-3-[(Z)-4-acetoxy-3-(4-fluorophenyl)-but-2-enyl]-4-(4-acetoxyphenyl)-1-(4-fluorophenyl)azetidin-2-one], the “effect of lowering cholesterol” value was “have the effect of lowering cholesterol”. Also, under setting [7], the inhibition in vivo at 1 mg/kg turned out to be 47.7% and the inhibition in vivo at 10 mg/kg was found to be 59.2%. For the same molecule, under setting [8], the inhibition in vivo at 1 mg/kg came to 48% and the inhibition in vivo at 10 mg/kg was 60.2%. Under “Table 9, 1 mg/kg intragastric”, the LDL after administration is reported as 1.65 mmol/L and the TC after administration was 7.98 mmol/L. Further, where the note is “Table 9, 10 mg/kg intragastric”, the LDL after administration is 1.28 mmol/L and the TC after administration stood at 6.11 mmol/L. Moreover, the “reduction … (in words)” value under setting [3] is “can significantly reduce the plasma TC and LDL-C levels”.
With `COc1ccc([C@@H]2[C@@H](C/C=C(\COC(C)=O)c3ccc(F)cc3)C(=O)N2c2ccc(F)cc2)cc1` [I-17(Z), (3R,4S)-3-[(Z)-4-acetoxy-3-(4-fluorophenyl)-but-2-enyl]-1-(4-fluorophenyl)-4-(4-methoxyphenyl)azetidin-2-one], the “effect of lowering cholesterol” value is recorded as “have the effect of lowering cholesterol” and the “efficacy compared with the positive control (in words)” value is on record as “more similar to the positive control”. Besides, the inhibition in vivo at 10 mg/kg under setting [9] amounted to 60.1%. For the same molecule, under setting [10], the inhibition in vivo at 10 mg/kg came out at 59.8%. Under setting [11], this molecule showed an LDL-C after administration of 1.19 and a TC after administration of 5.09. Besides, under setting [12], the LDL-C before administration is recorded as 2.98 ± 0.72 and the TC before administration was determined as 12.67 ± 1.28. Further, under setting [3], the “reduction … (in words)” value was “can significantly reduce the plasma TC and LDL-C levels”.
`O=C1[C@H](C/C=C(\CO)c2ccc(F)cc2)[C@@H](c2ccc(OCc3ccccc3)cc2)N1c1ccc(F)cc1` [I-4(Z)]: the “effect of lowering cholesterol” value is “have the effect of lowering cholesterol” and the “efficacy compared with the positive control (in words)” value is listed as “more similar to the positive control”. Besides, under setting [9], the inhibition in vivo at 5 mg/kg worked out at 53.5%. Besides, the inhibition in vivo at 5 mg/kg under setting [10] came to 49.1%. Where the note is “Table 11, 3 mg/kg intragastric”, the LDL-C after administration is given as 1.51 and the TC after administration came to 6.48. Under setting [13], the LDL-C before administration worked out at 3.25 ± 0.79 and the TC before administration is 12.73 ± 1.27. For the same molecule, under setting [3], the “reduction … (in words)” value was “can significantly reduce the plasma TC and LDL-C levels”.
